Laboratory results as given in publication PMC11778240, “Synthesis and preclinical evaluation of tigilanol tiglate analogs as latency-reversing agents for the eradication of HIV” (Science Advances, 2025).
Where “and” joins values, the source holds several entries; their conditions need not be identical. Identical values can stand only once. Like-named read-outs stand apart in the source and are kept apart here.

Experiments:
PKC-β-I = target: T1, PKC-β-I (Homo sapiens, UniProt P05771); assay: Cell-free PKC competition binding assay against 3H-PDBu; conditions: for PKC-β selectivity: Fig. 7A, PKC-β over PKC-δ; for PKC binding affinity and selectivity in words / decrease in PKC binding affinity / potency compared to EBC-46: PKC-β and PKC-δ; for logKi (best-fit value), PKC-β-I: log of Ki in nM
T1 construct: purchased Invitrogen
Excerpt: (§1) With a diverse library of compounds bearing unique functionalities on the A-, B-, and C-rings (Fig. 6), we began to explore how these modifications affect PKC binding (Fig. 7A), NF-κB activation (Fig. 7B), cell permeation and PKC translocation (Fig. 7, C and D), and latency reversal in J-Lat cells (Fig. 8). […] We conducted this assay with phosphatidyl serine vesicles in solution that mimic the cellular membrane and play a critical role in the binding of small molecules to the PKC C1 domain (Fig. 7A) ([64]).
(§2) Cell-free PKC Binding Assay
The protein kinase C (PKC) affinity of EBC-46 and EBC-46 analogs was determined via […]
entails a glass-fiber filtration method to determine bound radioligand. The method of determining the radioligand Kd is also described.
(§3) Tris HCl (Fisher, ≥ 99%, stored at room temperature)
(§4) Phosphatidylserine (Avanti Polar Lipids, porcine, 25 mg/mL CHCl3 solution, stored at - […]
(§5) Bovine serum albumin (Sigma -Aldrich, ≥ 98%, globulin free, protease free, stored at 4 […]
Human PKC-β-I-GST fusion protein (Invitrogen, aliquoted and stored at -78 °C) Human PKC-δ-GST fusion protein (Invitrogen, aliquoted and stored at -78 °C) Glass-fiber filters (Whatman GF/B) […]
(§6) a final concentration of 500 nM.
(§7) Preparation of phosphatidylserine (PS) vesicles :
(§8) For every 96 samples, 3.5 mg phosphatidylserine (140 μL) (25 mg/mL CHCl3 solution) was concentrated by removing chloroform under reduced pressure. The phosphatidylserine residue was resuspended in freshly prepared PKC binding assay buffer (3.5 mL), capped, and then thoroughly mixed by alternating between sonicating and vortexing, in 10 second intervals for 1 minute or until a cloudy white mixture (Branson Sonifier 250, power = 2, 50% duty cycle). The resulting cloudy white mixture (1 mg/mL) was stored on ic e until use.
(§9) Preparation of the "master mix" Solution :
(§10) Constituent Stock concentration (final concentration/amount in “master mix”):
(§11) PS vesicles (0.103 mg/mL)
(§12) Deionized H2O - Final vol of 30 mL
(§13) Preparation of PKC binding assay buffer:
(§14) For every 96 samples, to a 50 mL polypropylene tube was added Tris -HCl (pH 7.4, 1 M, 1.5 mL), KCl (1 M, 3 mL), CaCl2 (0.1 M, 35 μL – conventional isoforms only), and bovine serum albumin (60 mg). This mixture was diluted to 30 mL with deionized H2O and mixed gently. The buffer was […]
(§15) Preparation of PKC isoform solution:
(§16) For every 96 samples, PKC isoform solution was prepared by dissolving a 4 μg aliquot of the indicated recombinant human PKC isoform into 26.5 mL of PKC binding assay buffer. The diluted PKC was stored on ice for immediate use.
(§17) Preparation of PKC “master mix” solution:
(§18) To the PKC-isoform solution was added 1 mg/mL PS vesicles solution (3.30 mL), and 500 nM […]
(§19) The resulting “master mix” solution was vortexed and stored on […]
(§20) Preparation of analog compound dilutions:
(§21) Compound dilutions were prepared with filtered DMSO by serially diluting from a chosen "high" concentration. For the saturation binding experiment (radioligand Kd determination), the maximum radioligand concentration used was 4.0 nM with 2-fold dilutions between data points […]
(§22) the middle of the binding curve.
For the competition binding experiment (analog Ki determination), 7 or 14 concentrations were used to define the inhibition curve, and compounds dilutions changed by factors of 2 or √2 between data points. The concentrations were chosen such that the in-assay concentration for the data points in the middle of the binding curve were approximately equal to the IC50 of the compound (if the IC50 is unknown, an exploratory binding assay is recommended prior to Ki determination). For assays with one compound per sheet, the √2-fold dilutions were prepared for the concentrations in […]
PKC binding assay protocol (Saturation -binding experiment and Competition -binding experiment)
1) Glass-fiber filters were prepared by soaking them in a solution of aqueous polyethyleneimine

PKC-δ = target: T2, PKC-δ (Homo sapiens, UniProt Q05655); assay: as above
T2 construct: purchased Invitrogen (Sinobiological for the SUW402 experiment)
Excerpt: as §1, §2
The protein kinase C (PKC) affinity of EBC-46 and EBC-46 analogs was determined via competition with 3H-phorbol-12,13-dibutyrate (3H-PDBu) as described below. This procedure entails a glass-fiber filtration method to determine bound radioligand. The method of determining the radioligand Kd is also described.
as §3, §4, §5
Human PKC-β-I-GST fusion protein (Invitrogen, aliquoted and stored at -78 °C) Human PKC-δ-GST fusion protein (Invitrogen, aliquoted and stored at -78 °C) Glass-fiber filters (Whatman GF/B)
Preparation of 3H -PDBu solution : […]
as §6, §7, §8, §9, §10, §11, §12, §13, §14, §15, §16, §17, §18, §19, §20, §21
isoforms ranges from 0.3 – 0.8 nM. […]
as §22
For the competition binding experiment (analog Ki determination), 7 or 14 concentrations were used to define the inhibition curve, and compounds dilutions changed by factors of 2 or √2 between data points. The concentrations were chosen such that the in-assay concentration for the data points in the middle of the binding curve were approximately equal to the IC50 of the compound (if the IC50 is unknown, an exploratory binding assay is recommended prior to Ki determination). For assays with one compound per sheet, the √2-fold dilutions were prepared for the concentrations in the middle of the curve (e.g., for SUW400, the analog dilutions used were 15000 nM, 7500 nM, […]
PKC binding assay protocol (Saturation -binding experiment and Competition -binding experiment) […]

[1] = HotNM 2.5, HotKdNM 0.37, supplement fit, read-out: Ki (best-fit value), PKC-β-I
[2] = competition against radiolabeled PDBu, Fig. 7A and text, read-out: Ki PKC-β
[3] = HotNM 2.5, HotKdNM 0.62, supplement fit, read-out: Ki (best-fit value), PKC-δ
[4] = log of Ki in nM, HotNM 2.5, HotKdNM 0.62
[5] = competition against radiolabeled PDBu, Fig. 7A and text, read-out: Ki PKC-δ

T2 sequence (Q05655 whole entry): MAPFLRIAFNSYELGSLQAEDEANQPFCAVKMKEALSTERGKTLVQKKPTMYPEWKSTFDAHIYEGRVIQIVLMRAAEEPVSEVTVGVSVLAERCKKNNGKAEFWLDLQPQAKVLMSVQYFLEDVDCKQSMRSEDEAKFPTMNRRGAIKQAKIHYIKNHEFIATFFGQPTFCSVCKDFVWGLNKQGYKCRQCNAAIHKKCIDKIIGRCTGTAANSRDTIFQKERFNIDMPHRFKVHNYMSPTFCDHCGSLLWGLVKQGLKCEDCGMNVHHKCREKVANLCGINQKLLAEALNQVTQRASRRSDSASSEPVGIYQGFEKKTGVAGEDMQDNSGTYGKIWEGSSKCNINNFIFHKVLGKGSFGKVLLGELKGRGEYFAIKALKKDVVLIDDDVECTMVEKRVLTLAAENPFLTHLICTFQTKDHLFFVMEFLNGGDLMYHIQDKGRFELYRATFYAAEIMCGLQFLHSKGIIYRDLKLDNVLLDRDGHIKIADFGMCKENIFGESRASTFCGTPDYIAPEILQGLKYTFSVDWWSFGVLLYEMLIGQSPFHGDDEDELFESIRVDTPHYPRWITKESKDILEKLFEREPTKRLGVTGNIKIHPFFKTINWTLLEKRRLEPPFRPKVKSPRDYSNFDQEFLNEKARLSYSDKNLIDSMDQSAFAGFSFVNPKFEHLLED
T1 sequence (P05771 whole entry): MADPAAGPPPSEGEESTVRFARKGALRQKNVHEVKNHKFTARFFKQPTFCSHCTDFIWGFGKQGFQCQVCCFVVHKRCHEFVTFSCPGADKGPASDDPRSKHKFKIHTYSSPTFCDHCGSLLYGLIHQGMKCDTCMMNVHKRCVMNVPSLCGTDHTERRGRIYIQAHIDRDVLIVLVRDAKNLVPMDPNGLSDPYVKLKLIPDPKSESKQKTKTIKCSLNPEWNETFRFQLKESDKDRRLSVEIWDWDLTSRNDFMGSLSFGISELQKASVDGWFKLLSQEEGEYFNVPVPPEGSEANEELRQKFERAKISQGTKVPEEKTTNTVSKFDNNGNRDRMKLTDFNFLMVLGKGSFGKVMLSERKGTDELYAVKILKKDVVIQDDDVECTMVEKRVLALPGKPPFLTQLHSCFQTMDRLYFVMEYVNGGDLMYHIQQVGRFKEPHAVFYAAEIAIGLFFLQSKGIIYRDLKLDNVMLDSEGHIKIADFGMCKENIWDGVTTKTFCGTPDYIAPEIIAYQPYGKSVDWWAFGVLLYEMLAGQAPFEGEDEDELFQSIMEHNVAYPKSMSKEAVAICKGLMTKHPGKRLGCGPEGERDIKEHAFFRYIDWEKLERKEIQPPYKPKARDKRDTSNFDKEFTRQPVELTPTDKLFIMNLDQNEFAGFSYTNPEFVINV

C/C=C(\C)C(=O)O[C@@H]1[C@@H](C)[C@]2(O)[C@@H]3C=C(C)[C@H](OC(=O)c4ccccc4)[C@@]3(O)[C@H](O)C(CO)=C[C@H]2[C@@H]2C(C)(C)[C@]12OC(=O)[C@@H](C)CC [SUW422]
PKC-β selectivity (PKC-β-I): 2.1
Ki (PKC-β-I; [1]): 1.49 nM
PKC binding affinity and selectivity in words (PKC-β-I): nearly identical binding potency and selectivity to EBC-46
Ki (PKC-β-I; [2]): 1.5 nM
logKi (best-fit value), PKC-β-I (PKC-β-I; HotNM 2.5, HotKdNM 0.37): 0.1731
Ki (PKC-δ; [3]): 3.04 nM
logKi (best-fit value), PKC-δ (PKC-δ; [4]): 0.4832

CC[C@H](C)C(=O)O[C@@]12[C@H](OC(=O)N3CCCC3)[C@@H](C)[C@@]3(O)[C@H]([C@@H]1C2(C)C)[C@@H]1O[C@]1(CO)[C@@H](O)[C@]1(O)C(=O)C(C)=C[C@H]13 [SUW424]
selectivity for PKC-β over PKC-δ (PKC-β-I): 6 fold
PKC-β selectivity (PKC-β-I): 6.1
Ki (PKC-β-I; [1]): 27.8 nM
decrease in PKC binding affinity / potency compared to EBC-46 (PKC-β-I): > 10 fold
Ki (PKC-β-I; [2]): 28 nM and ~25 nM
logKi (best-fit value), PKC-β-I (PKC-β-I; HotNM 2.5, HotKdNM 0.37): 1.445
Ki (PKC-δ; [3]): 175 nM
Ki (PKC-δ; [5]): 170 nM
logKi (best-fit value), PKC-δ (PKC-δ; [4]): 2.242

C/C=C(\C)C(=O)O[C@@H]1[C@@H](C)[C@]2(O)[C@@H]3C=C(C)[C@H](OC(=O)C=C(C)C)[C@@]3(O)[C@H](O)C(CO)=C[C@H]2[C@@H]2C(C)(C)[C@]12OC(=O)[C@@H](C)CC [SUW425]
PKC-β selectivity (PKC-β-I): 1.8
Ki (PKC-β-I; [1]): 2.61 nM
PKC binding affinity and selectivity in words (PKC-β-I): approximately the same as EBC-46
Ki (PKC-β-I; [2]): 2.6 nM
logKi (best-fit value), PKC-β-I (PKC-β-I; HotNM 2.5, HotKdNM 0.37): 0.4165
Ki (PKC-δ; [3]): 4.73 nM
Ki (PKC-δ; [5]): 4.7 nM
logKi (best-fit value), PKC-δ (PKC-δ; [4]): 0.6748

CC=C(C)C(=O)OC1C(C)C2(O)C(C3OC3(COC)C(O)C3(O)C(=O)C(C)=CC32)C2C(C)(C)C12OC(=O)C(C)CC (stereo not shown) [SUW426]
PKC-β selectivity (PKC-β-I): 1.8
Ki (PKC-β-I; [1]): 396 nM
decrease in PKC binding affinity / potency compared to EBC-46 (PKC-β-I): approximately 250 fold
Ki (PKC-β-I; [2]): 400 nM
logKi (best-fit value), PKC-β-I (PKC-β-I; HotNM 2.5, HotKdNM 0.37): 2.598
logKi (best-fit value), PKC-δ (PKC-δ; HotNM 5, HotKdNM 0.72): 2.846
Ki (PKC-δ; HotNM 5, HotKdNM 0.72, read-out: Ki (best-fit value), PKC-δ): 702 nM
Ki (PKC-δ; [5]): 700 nM

C/C=C(\C)C(=O)O[C@@H]1[C@@H](C)[C@@]2(O)[C@H]([C@@H]3C(C)(C)[C@]13OC(=O)c1ccccc1)[C@@H]1O[C@]1(CO)[C@@H](O)[C@]1(O)C(=O)C(C)=C[C@H]12 [SUW428]
selectivity for PKC-β over PKC-δ (PKC-β-I): > 12 fold
PKC-β selectivity (PKC-β-I): 12.5
Ki (PKC-β-I; [1]): 5.12 nM
PKC binding affinity and selectivity in words (PKC-β-I): approximately three times lower affinity for PKC-β compared to EBC-46
Ki (PKC-β-I; [2]): 5.1 nM
logKi (best-fit value), PKC-β-I (PKC-β-I; HotNM 2.5, HotKdNM 0.37): 0.7091
weaker binding affinity for PKC-δ than EBC-46 (PKC-δ): ~ 20 ×
Ki (PKC-δ; [3]): 64.2 nM
Ki (PKC-δ; [5]): 64 nM
logKi (best-fit value), PKC-δ (PKC-δ; [4]): 1.808

CC[C@H](C)C(=O)O[C@@]12[C@H](OC(C)(C)C)[C@@H](C)[C@@]3(O)[C@H]([C@@H]1C2(C)C)[C@@H]1O[C@]1(CO)[C@@H](O)[C@]1(O)C(=O)C(C)=C[C@H]13 [SUW430]
selectivity for PKC-β over PKC-δ (PKC-β-I): 40 fold
Ki (PKC-β-I; [1]): 1.47 nM
Ki (PKC-β-I; [2]): 1.5 nM
logKi (best-fit value), PKC-β-I (PKC-β-I; HotNM 2.5, HotKdNM 0.37): 0.1684
weaker binding affinity for PKC-δ than EBC-46 (PKC-δ): ~ 20 ×
Ki (PKC-δ; [3]): 59.7 nM
Ki (PKC-δ; [5]): 60 nM
logKi (best-fit value), PKC-δ (PKC-δ; [4]): 1.776

C/C=C(\C)C(=O)O[C@@H]1[C@@H](C)[C@@]2(O)[C@H]([C@@H]3C(C)(C)[C@]13OC(=O)Cc1cccc3ccccc13)[C@@H]1O[C@]1(CO)[C@@H](O)[C@]1(O)C(=O)C(C)=C[C@H]12 [SUW431]
selectivity for PKC-β over PKC-δ (PKC-β-I): 1.4 fold
stronger binding for PKC-β compared to EBC-46 (PKC-β-I): ~ 20 fold
Ki (PKC-β-I; [1]): 0.079 nM
PKC binding affinity and selectivity in words (PKC-β-I): remarkable affinities in the picomolar range
logKi (best-fit value), PKC-β-I (PKC-β-I; HotNM 2.5, HotKdNM 0.37): -1.102
Ki (PKC-β-I; read-out: binding for PKC-β (Ki)): 0.079 nM
stronger binding for PKC-δ compared to EBC-46 (PKC-δ): 30 fold
Ki (PKC-δ; [3]): 0.114 nM
greater affinity to PKC-δ than that reported for SUW013 (PKC-δ; comparison with literature value): approximately 10 fold
logKi (best-fit value), PKC-δ (PKC-δ; [4]): -0.9424
Ki (PKC-δ; read-out: binding for PKC-δ (Ki)): 0.11 nM
